Assays:
A549 cells = experiment: MTT assay, A549 cells; type: cell-based, human; settings: 72 h, read-out: Inhibitory Effect (IC50/μM) A549
Description: (§1) Liver cancer HepG2 cells, lung cancer A549 cells, breast cancer MCF-7 and MDA-MB-231 cells, human nasopharyngeal carcinoma CNE-1 cells, and human immortalized keratinocyte HaCaT cells were seeded in 96-well plates (5 × 10^3 cells per well) and cultured at 37 °C and 5% CO2 for 24 h. Cells were treated with different concentrations of the complexes (0, 1.5625, 3.125, 6.25, 12.5, 25, 50, and 100 µM) for 72 h. After adding 20 µL MTT (5 mg/mL) solution to each well, the cells were incubated for 4 h, and then 150 µL DMSO was added to each well. The optical density of each well was detected by a microplate reader at a wavelength of 570 nm. The cell survival rate (%) = A(experimental group)/A(control group) × 100%, and the IC50 value was analyzed and calculated based on the survival rate.

c-myc G-quadruplex DNA [1] = experiment: FRET melting assay; type: binding, human; settings: free DNA Tm 59.5 °C
Description: Carboxy fluorescein (FAM) and 6-carboxytetramethyl rhodamine (TAMRA) double fluorescent-labeled c-myc G4 DNA (5′−FAM-TGAGGGTGGGAGGGGTAA-TAMRA−3′) were heated to 95 °C in Tris-HCl-KCl buffer (containing 10 mM Tris-HCl, 100 mM KCl, pH 7.4) for 5 min and slowly cooled to room temperature. To ds26, double-stranded DNA ([…]) is a competitive binder, research Λ/Δ−3 with c-myc G4 selectivity binding ability of DNA. A Bio-Radiq5 real-time PCR detection system was used to measure the fluorescence melting curve. Approximately 1 μM (5 μL) FPU22T was mixed with a series of 5 μL compound solutions of different concentrations, and 15 μLTris-HCl-KCl buffer was added to the PCR 8 tube to obtain a total volume of 25 μL. A real-time fluorescence quantitative PCR instrument was used, and incubation was performed at 30 °C for 30 min. The program temperature range was set to 30–95 °C at a temperature interval of 1 °C, and recording was performed after balancing for 30 s to detect the fluorescence value of FAM. The conditions of the reaction system were similar to those of the FRET melting point test except that different concentrations of ds26 were added.

MDA-MB-231 cells [2] = experiment: Comet assay; type: cell-based, human; settings: 5 and 10 μM
Description: DNA damage was detected by single-cell gel electrophoresis by using the Comet assay kit (Trevigen). MDA-MB-231 cells were added to a culture dish containing the medium. After treatment with different concentrations of the complexes (0, 5, and 10 μM) at 37 °C for 72 h, the cells were collected and washed with PBS three times. A solution of the cell suspension and melted low-melting-point agarose gel was mixed at a volume ratio of 1:7, and the equilateral sample was immediately transferred to a Comet Slide TM slide. The slides were washed twice with PBS, placed into an electrophoresis tank containing comet electrophoresis solution, and electrophoresed at 25 V for 30 min. After electrophoresis, the slides were washed twice with PBS. Finally, the cells were stained with EB and observed under a fluorescence microscope. Cells were randomly selected from each slide to take photos, and the tail moment was analyzed.

MDA-MB-231 cells [3] = experiment: Zebrafish xenograft breast cancer model; type: in vivo; settings: 2.5, 5, and 10 μM, 72 h
Description: (§2) The zebrafish model of transplanted breast cancer was constructed in accordance with the methods in the literature. Juvenile 48 h old breast cancer model zebrafish were placed in 48-well plates (n = 10), and 0.2 mL aquaculture water without or with Δ−3 (0, 2.5, 5, and 10 μM) was added for culture. Images were captured every 24 h using a fluorescence microscope to study the inhibitory effect of Δ−3 on zebrafish with breast cancer. In addition, the mean number of sprout and mean length of sprout in subintestinal vessels (SIVs) were analyzed by ImageProPlus software. The ethical protocols for the in vivo research on zebrafish complied with relevant laws.

[4] = tested on: subintestinal vessels (SIVs); experiment: Angiogenic assay in Tg (fli1: EGFP) zebrafish; type: in vivo; settings: compared with control group
Description: as §2

MCF-7 cells = experiment: MTT assay, MCF-7 cells; type: cell-based, human; settings: 72 h, read-out: Inhibitory Effect (IC50/μM) MCF-7
Description: as §1

c-myc G-quadruplex DNA [5] = experiment: PCR-stop assay; type: biochemical, human; settings: Taq polymerase
Description: In this study, c-myc G4 DNA and its reverse complementary sequence c-myc rev were heated to 95 °C for 5 min, allowed to cool to room temperature, and incubated at 4 °C overnight. The system was supplemented with dNTPs and Taq polymerase for PCR amplification; heated at 95 °C for 3 min, 94 °C for 30 s, and 58 °C for 30 s, with an extension at 72 °C for 30 s (30 cycles); and analyzed by 15% nondenatured polyacrylamide gel electrophoresis and silver staining.

c-myc protein = c-myc protein expression in MDA-MB-231 cells; type: cell-based, human; settings: 40 μΜ, 72 h
HUVECs = experiment: Tube formation assay; type: cell-based, human; settings: 10 μM, 6 h, VEGF 200 ng/mL
Description: Dissolving matrigel (4 °C, 24 h) was used to coat prechilled 96-well plates (50 μL/well, 37 °C, for at least 60 min). Then, the unsolid fluid was removed, and HUVECs at the density of 3 × 10^4 were cultured in DMEM with VEGF (200 ng/mL) containing the different concentrations of Δ−3 (0, 5, and 10 μM) for 6 h.

HepG2 cells = experiment: MTT assay, HepG2 cells; type: cell-based, human; settings: 72 h, read-out: Inhibitory Effect (IC50/μM) HepG2
Description: as §1

## Δ-[Ru(bpy)2(3-NBEDPPZ)](ClO4)2 [Δ−3]
A549 cells
  IC50: 24.7 ± 0.28 µM
c-myc G-quadruplex DNA [1]; complex 0.5 μM
  ΔTm: approximately 3.5 °C
c-myc G-quadruplex DNA [1]; complex 1.0 μM
  ΔTm: ~7.2 °C
MDA-MB-231 cells [2]
  DNA damage (comet appearance): cometary shapes appeared
MDA-MB-231 cells [3]
  number of MDA-MB-231 cells in zebrafish: significantly lower than that of the control
[4]
  number and length of SIVs: significantly decreased
MCF-7 cells
  IC50: 90.6 ± 6.34 µM
c-myc G-quadruplex DNA [5]
  minimum concentration necessary for effective inhibition (PCR products): 2.5 µM
c-myc protein
  expression of the c-myc protein: effectively downregulated
HUVECs
  tubular structures of HUVECs on Matrigel: sparse and incomplete
HepG2 cells
  IC50: 37.8 ± 0.6 µM
